Source: patent US6613317B1, “Volatile attractants for diabrotica species” (priority 1988, dated 2003)
Marks after values point to notes of the source that are not given here.

Tests used:
rootworm beetles = assay: Small-plot comparison of insecticides in TEX×PEP dry ground bait; assay type: in vivo; details: 0.01-0.1% (wt/wt); 1- to 3.3-m2 plots of corn and cucurbits
Description: Bait applications to evaluate various insecticides. The relative effectiveness of a variety of insecticides incorporated at 0.01-0.1% (wt/wt) in TEX×PEP dry ground bait was compared. The following insecticides were tested: bendiocarb, carbaryl, carbofuran, methomyl, oxamyl; dimethoate, malathion, isofenphos, phospholan, and mephospholan; and permethrin, cypermethrin, fenvalerate, and flucythrinate. […] The overall greater effectiveness of the carbamates in these small-plot tests is attributed to their rapid kill and lack of repellent effect. The pyrethroids were somewhat repellent to the rootworm beetles.

NCR = assay: Limit of response rating of squash blossom volatiles on sticky traps (Example 5); assay type: in vivo, Diabrotica barberi; details: 24 hour; four replicate traps; 0.01 mg to 200 mg
How it was run: (§1)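 Adult Diabrotica beetles were tested against cylindrical sticky traps baited with cotton wicks holding 0.01 mg to 200 mg of individual Cucurbita maxima blossom volatiles. Response limit rated by trap catch.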

D. cristata = assay: Sticky trap attraction in prairie habitat, Trelease Woods (Example 2); assay type: in vivo, Diabrotica cristata; details: 100 mg per trap, n = 4
Description: (§2) The candidate lures in all experiments were purchased commercially and exceeded 98% purity. The test chemicals were applied by capillary micropipettes to cotton dental wicks which were attached to the tops of 1.0 liter cylindrical paper cartons covered with TangleTrap™ (Tanglefoot Co., Grand Rapids, Mich.). The sticky trap techniques used were as described in Example 1. Cinnamyl alcohol and para-methoxycinnamaldehyde, which are solids, were dissolved in glass-distilled acetone prior to dosing the cotton wicks. […]. Control traps had untreated cotton wicks. Four replicates of treated and untreated traps were randomly positioned 10 meters apart on top of 1 m high posts along the border of a eight foot wide strip cut through the middle of a 4.05 ha relict prairie at Trelease Woods (ca. two miles northeast of Urbana, Ill.). The field consisted primarily of Andropogon gerardii Vitman (big bluestem) and a variety of composites. The tests were conducted in mid-August of two years and were timed to coincide with the presence of D. cristata and D. barberi adults in the flower heads of Canada thistle (Carduus arvensis Robson). In the second year, several new attractants of D. v. virgifera and D. barberi were tested in Trelease Woods and along the edge of a 0.8 ha field of hybrid corn located at the Pomology South Farms, Urbana, Ill. Attraction of Diabrotica species to the various lures was measured by the mean number of beetles caught after 24-h. On one date in late August of the first year, D. cristata and D. barberi were removed from the traps and sexed in the laboratory. The significance of treatments in all tests was determined by an analysis of variance and the individual means were separated by Duncan's multiple range test (Statistical Package for Social Science, Nie, et al., SPSS: statistical package for the social sciences, 2nd ed. McGraw-Hill, New York (1975). Data were logarithmically transformed for statistical analysis and the means and standard deviations are presented for the untransformed data.

D. u. howardi [1] = assay: Sticky trap attraction along hybrid corn, Pomology South Farms (Example 2); assay type: in vivo, Diabrotica undecimpunctata howardi; details: 100 mg per trap, n = 4
Description: (§3) The candidate lures in all experiments were purchased commercially and exceeded 98% purity. The test chemicals were applied by capillary micropipettes to cotton dental wicks which were attached to the tops of 1.0 liter cylindrical paper cartons covered with TangleTrap™ (Tanglefoot Co., Grand Rapids, Mich.). The sticky trap techniques used were as described in Example 1. Cinnamyl alcohol and para-methoxycinnamaldehyde, which are solids, were dissolved in glass-distilled acetone prior to dosing the cotton wicks. All treatments were applied at a dosage of 100 mg per trap. 1,2,4-trimethoxybenzene, indole, and trans-cinnamaldehyde were mixed in a ratio of 1:1:1, by weight, immediately prior to dosing the cotton wicks. Control traps had untreated cotton wicks. Four replicates of treated and untreated traps were randomly positioned 10 meters apart on top of 1 m high posts along the border of a eight foot wide strip cut through the middle of a 4.05 ha relict prairie at Trelease Woods (ca. two miles northeast of Urbana, Ill.). The field consisted primarily of Andropogon gerardii Vitman (big bluestem) and a variety of composites. The tests were conducted in mid-August of two years and were timed to coincide with the presence of D. cristata and D. barberi adults in the flower heads of Canada thistle (Carduus arvensis Robson). In the second year, several new attractants of D. v. virgifera and D. barberi were tested in Trelease Woods and along the edge of a 0.8 ha field of hybrid corn located at the Pomology South Farms, Urbana, Ill. Attraction of Diabrotica species to the various lures was measured by the mean number of beetles caught after 24-h. On one date in late August of the first year, D. cristata and D. barberi were removed from the traps and sexed in the laboratory. The significance of treatments in all tests was determined by an analysis of variance and the individual means were separated by Duncan's multiple range test (Statistical Package for Social Science, Nie, et al., SPSS: statistical package for the social sciences, 2nd ed. McGraw-Hill, New York (1975). Data were logarithmically transformed for statistical analysis and the means and standard deviations are presented for the untransformed data.

D. barberi [2] = assay: Sticky trap attraction in prairie habitat, Trelease Woods (Example 2); assay type: in vivo, Diabrotica barberi; details: 100 mg per trap, n = 4
Description: as §2

WCR = assay: Limit of response rating of squash blossom volatiles on sticky traps (Example 5); assay type: in vivo, Diabrotica virgifera virgifera; details: 24 hour; for Attractant Rating WCR (by limit of response): four replicate traps, 0.01 mg to 200 mg; for LR for WCR: sticky traps
How it was run: as §1

D. v. virgifera [3] = assay: Sticky trap attraction along hybrid corn, Pomology South Farms (Example 2); assay type: in vivo, Diabrotica virgifera virgifera; details: 100 mg per trap, n = 4
Description: as §3

SCR = assay: Limit of response rating of squash blossom volatiles on sticky traps (Example 5); assay type: in vivo, Diabrotica undecimpunctata howardi; details: 24 hour; four replicate traps; 0.01 mg to 200 mg
How it was run: as §1

D. v. virgifera [4] = assay: Sticky trap attraction in prairie habitat, Trelease Woods (Example 2); assay type: in vivo, Diabrotica virgifera virgifera; details: 100 mg per trap, n = 4
Description: as §2

D. u. howardi [5] = assay: as above; assay type: in vivo, Diabrotica undecimpunctata howardi; details: 100 mg per trap, n = 4
Description: as §2

D. barberi [6] = assay: Sticky trap attraction along hybrid corn, Pomology South Farms (Example 2); assay type: in vivo, Diabrotica barberi; details: 100 mg per trap, n = 4
Description: as §3

[7] = test system: southern corn rootworm (SCR) adults; assay: Sticky trap attraction in corn, estragole analogues (Example 3); assay type: in vivo, Diabrotica undecimpunctata howardi; details: September 11; 100 mg per trap; n = 4
How it was run: (§4)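 Cotton wicks dosed with 100 mg or 100 μL attractant per trap on TangleTrap-coated cartons, four replicates 10 m apart on 1 m posts at field edges of hybrid or sweet corn. Mean beetles caught after ~24 h; log-transformed ANOVA with Duncan's test, P=0.05.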

[8] = test system: western corn rootworm (WCR) adults; assay: Sticky trap attraction in corn, estragole analogues (Example 3); assay type: in vivo, Diabrotica virgifera virgifera; details: 100 mg per trap
How it was run: as §4

[9] = test system: western corn rootworm (WCR) adults; details: cited from earlier work
[10] = test system: southern corn rootworm (SCR) adults; assay: Sticky trap attraction in sweet corn plots (Example 1); assay type: in vivo, Diabrotica undecimpunctata howardi; details: for Mean number of SCR per trap (±standard deviation): n = 4
How it was run: (§5)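 Field trapping in sweet-corn plots beside a Blue Hubbard squash trap crop; lures on mineral-oil-impregnated cotton wicks atop sticky paper-carton traps on 1-m posts, 4 replicates in randomized complete blocks. Beetles counted after 24 h; VIPAE/VIP/TIC mixtures and single components at 1–300 mg per trap, ANOVA/Duncan at P=0.05.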

[11] = test system: western corn rootworm (WCR) adults; assay: as above; assay type: in vivo, Diabrotica virgifera virgifera; details: for Mean number of WCR per trap (±standard deviation): n = 4
How it was run: as §5

[12] = August 4, second year, each compound 20 mg per trap
[13] = August 7, second year, each compound 20 mg per trap
[14] = August first year, South Farms, 24 h, single compounds 100 mg per trap, mixture 20 mg of each component
[15] = August first year, single compounds 100 mg per trap, mixture 20 mg each component

CNC(=O)Oc1cccc2ccccc12 [carbaryl]
relative effectiveness of insecticides in TEX×PEP dry ground bait (rootworm beetles): more effective than the pyrethroids

CNC(=O)Oc1cccc2c1OC(C)(C)C2 [carbofuran]
relative effectiveness of insecticides in TEX×PEP dry ground bait (rootworm beetles): more effective than the pyrethroids

CC(=O)/C=C/C1=C(C)CCCC1(C)C [β-ionone]
Attractant Rating NCR (by limit of response) (NCR): 0 (200) | Mean number of D. cristata per day (±standard deviation) (D. cristata; August 11, 1987): 17.3 ± 8.7^b per day | Mean number of D. cristata per day (±standard deviation) (D. cristata; August 14, 1987): 5.3 ± 2.2^b per day | Mean number of D. u. howardi per stick trap per day (±standard deviation) in corn (D. u. howardi [1]; August 7): 1.8 ± 2.4^a per stick trap per day | Mean number of D. u. howardi per stick trap per day (±standard deviation) in corn (D. u. howardi [1]; August 18): 0.5 ± 0.7^a per stick trap per day | Mean number of D. barberi per day (±standard deviation) (D. barberi [2]; August 11, 1987): 0.3 ± 0.5^ab per day | Mean number of D. barberi per day (±standard deviation) (D. barberi [2]; August 14, 1987): 0.3 ± 0.5^a per day | Attractant Rating WCR (by limit of response) (WCR): +4 (1-3) | LR for WCR (WCR): 3 mg | Mean number of D. v. virgifera per stick trap per day (±standard deviation) in corn (D. v. virgifera [3]; August 7): 263.5 ± 94.6^cd per stick trap per day | Mean number of D. v. virgifera per stick trap per day (±standard deviation) in corn (D. v. virgifera [3]; August 18): 89.0 ± 18.2^b per stick trap per day | Attractant Rating SCR (by limit of response) (SCR): 0 (200) | Mean number of D. v. virgifera per day (±standard deviation) (D. v. virgifera [4]; August 11, 1987): 4.0 ± 0.8^b per day | Mean number of D. v. virgifera per day (±standard deviation) (D. v. virgifera [4]; August 14, 1987): 2.3 ± 1.3^b per day | Mean number of D. u. howardi per day (±standard deviation) (D. u. howardi [5]; August 11, 1987): 0.3 ± 0.5^a per day | Mean number of D. u. howardi per day (±standard deviation) (D. u. howardi [5]; August 14, 1987): 0.0^a per day | Mean number of D. barberi per stick trap per day (±standard deviation) in corn (D. barberi [6]; August 7): 0.5 ± 0.7^a per stick trap per day | Mean number of D. barberi per stick trap per day (±standard deviation) in corn (D. barberi [6]; August 18): 1.5 ± 1.0^a per stick trap per day

CNC(=O)Oc1cccc2c1OC(C)(C)O2 [bendicarb, bendiocarb]
relative effectiveness of insecticides in TEX×PEP dry ground bait (rootworm beetles): more effective than the pyrethroids

CCOP(=S)(NC(C)C)Oc1ccccc1C(=O)OC(C)C (stereo not shown) [Isofenphos, isofenphos]
relative effectiveness of insecticides in TEX×PEP dry ground bait (rootworm beetles): most effective of the organophosphorus insecticides

COC(=O)C=Cc1ccc(OC)cc1 [XIV, 4-methoxycinnamic acid methyl ester]
Mean number of SCR adults per sticky trap (±standard deviation) after 24 hours [7]: 0.7 ± 1.5^a per sticky trap | melting point: 87 to 89 °C | Mean number of WCR adults per sticky trap (±standard deviation) after 24 hours ([8]; September 11, n = 4): 1.0 ± 1.1^a per sticky trap

CNC(=O)ON=C(C)SC [methomyl]
relative effectiveness of insecticides in TEX×PEP dry ground bait (rootworm beetles): more effective than the pyrethroids

CCC(=O)OC(C)CCCCCC(C)CC (stereo not shown) [8-methyl-2-decylpropanoate]
amount per sticky trap that attracted male WCR ([9]; per sticky trap): 5 µg

CCOc1ccc(OC)cc1 [VI, 4-methoxyphenyl ethyl ether]
melting point: 34 to 35 °C | Relative percent activity as compared with the highest mean in the column (WCR) ([8]; August 29): 8% | Mean number of WCR per sticky trap (±standard deviation) after 24 hours ([8]; August 29, n = 4): 12.0 ± 1.8 per sticky trap | Relative percent activity as compared with the highest mean in the column (WCR) ([8]; July 30): 39% | Mean number of WCR per sticky trap (±standard deviation) after 24 hours ([8]; July 30, n = 4): 32.0 ± 8.4 per sticky trap

c1ccc2[nH]ccc2c1 [Indole]
Attractant Rating NCR (by limit of response) (NCR): 0 (200) | relative percent activity (SCR) as compared with the highest mean value for the test date [10, 12]: 4% | Mean number of SCR per trap (±standard deviation) [10, 12]: 1.5 ± 1.0 per trap | relative percent activity (SCR) as compared with the highest mean value for the test date [10, 13]: 6% | Mean number of SCR per trap (±standard deviation) [10, 13]: 2.8 ± 1.3 per trap | Mean number of SCR per trap (±standard deviation) [10, 14]: 2.3 ± 2.1 per trap | relative percent activity of the mean SCR trap catch as compared with the highest mean value in the column [10, 15]: 11% | relative percent activity (WCR) as compared with the highest mean value for the test date [11, 12]: 100% | Mean number of WCR per trap (±standard deviation) [11, 12]: 51.3 ± 24.4 per trap | relative percent activity (WCR) as compared with the highest mean value for the test date [11, 13]: 87% | Mean number of WCR per trap (±standard deviation) [11, 13]: 27.5 ± 11.8 per trap | Mean number of WCR per trap (±standard deviation) [11, 14]: 3.3 ± 2.1 per trap | relative percent activity of the mean WCR trap catch as compared with the highest mean value in the column [11, 15]: 49% | Attractant Rating WCR (by limit of response) (WCR): +4 (1-3) | LR for WCR (WCR): 1 mg | LR values for WCR attraction (literature) ([9]; in vivo): 1 mg | Attractant Rating SCR (by limit of response) (SCR): 0 (200)
